What was measured:
[1] = Antiproliferative activity in MCF-7 human breast cancer cells; assay type: functional, cell-based, MCF7
[2] = Antiproliferative activity in MDA-MB 231 human breast cancer cells; assay type: functional, cell-based, Cancer cell lines
Cancer cell lines [3] = assay: Content in MCF-7 human breast cancer cell nuclei was reported; assay type: functional, cell-based
Nucleic Acid = assay: DNA-binding efficacy; assay type: nucleic-acid assay
Cancer cell lines [4] = assay: Percentage of content in MDA-MB 231 human breast cancer cell nuclei was reported; assay type: functional, cell-based
Cancer cell lines [5] = assay: Content in MDA-MB 231 human breast cancer cell nuclei was reported; assay type: functional, cell-based
[6] = system: Glutathione reductase (Homo sapiens); assay: Percentage influence on cellular glutathione reductase activity
Cancer cell lines [7] = assay: Percentage of content in MCF-7 human breast cancer cell nuclei was reported; assay type: functional, cell-based
[8] = Lipophilicity was reported; assay type: physicochemical; conditions: human, octanol/water
[9] = Homo sapiens, Cancer cell lines

Molecule	IC50 ([1]; Homo sapiens, MCF7) [µM]	IC50 [2, 9] [µM]	IC50 ([1]; mcf7) [µM]	IC50 ([2]; cancer cell lines) [µM]	other results
N[C@@H](Cc1ccc(N(CCCl)CCCl)cc1)C(=O)O	5.7	3.9			
CISPLATIN			2	4	
Co-ASS [listing 1 of 2 here]					Activity (Cancer cell lines [3]): 0.12 pmol/µg; Activity (Nucleic Acid): 9.82 pmol/µg; Activity (Cancer cell lines [4]): 5%; Activity (Cancer cell lines [5]): 0.22 pmol/µg; Activity [6]: 93%; Activity (Cancer cell lines [7]): 0.8%
Co-ASS [listing 2 of 2 here]			1.4	1.9	Log Kw [8]: 4.91
O=c1[nH]cc(F)c(=O)[nH]1 [FLUOROURACIL]	4.8	9.6			

From ChEMBL document CHEMBL1141875, “Antitumor-active cobalt-alkyne complexes derived from acetylsalicylic acid: studies on the mode of drug action” (J Med Chem, 2005)
